In assay [1] the target is T1, human VEGFR-2 (Homo sapiens, UniProt P35968).
T1 construct: VEGFR-2 in HepG2 cell line; endogenous in cells; host or cells: HepG2
In words: In vitro VEGFR-2 enzyme inhibition assay (Human VEGFR-2 ELISA kit). The assay is classed as biochemical. The procedure: (§1) 3- 4.2. Experimental of biological testing
4.2.1. In vitro anti-proliferative activity […]
The tested cell lines were purchased and dropped on the appropriate growth medium. The growth medium was supplemented with […] of streptomycin, 100 units/mL of penicillin and 10% of heat-inactivated fetal bovine serum in a humidified 5% (v/v) CO2 atmosphere at 37 ◦C. […]
(§2) 4.2.2. In vitro VEGFR-2 kinase assay
(§3) The synthesized compounds were estimated for their in vitro inhibition on human VEGFR-2 in HepG2 cell line; using ELISA kit. Firstly, a plate was used for the assay […]
nominated as a standard VEGFR-2 inhibitor. Both standard and samples were added to the wells and incubated overnight at 4 ◦C, then washed. The biotinylated antibody was supplemented and further incubated for 1 h at room temperature. The unreacted, liberated antibody was then washed; followed by addition of HRP-conjugated streptavidin and incubated for 45 min at room temperature. Wells were washed and a TMB substrate solution was added and kept at room temperature for 30 min. Finally, the stop solution was added, and the intensity of the color produced was measured at […]

The subject of assay [2] is HepG-2. In words: MTT anti-proliferative assay, HepG-2. The assay is classed as cell-based. The note with it: Homo sapiens, HepG2, HepG-2 hepatocellular carcinoma cells, read-out: Cytotoxicity IC50 HepG-2. The procedure: (§4) MTT procedure[41]^,[42] was applied for the determination of the anti-proliferative activity as described in Supplementary data.
as §1
(§5) 4.2.1. In vitro anti-proliferative activity
(§6) The in vitro antiproliferative activities of the synthesized compounds were evaluated against two human tumor cell lines: hepatocellular carcinoma (HepG2) and breast cancer (MCF-7) using MTT assay protocol The commercially available […]
(§7) The tested cell lines were purchased and dropped on the appropriate growth medium. The growth medium was supplemented with […] of streptomycin, 100 units/mL of penicillin and 10% of heat-inactivated fetal bovine serum in a humidified 5% (v/v) CO2 atmosphere at 37 ◦C.
(§8) Then the cells from the two cancer cell lines were seeded at the appropriate densities into 96-well microtiter plates. After incubation for 24 h, the growth medium of each cell was treated with graded concentrations (0.1, 10, 100 and 1000 μM) of the test compounds and incubated for three days. The viability of treated cells was determined using 3-[4,5-dimethylthiazole-2-yl]- 2,5-diphenyltetrazolium bromide (MTT) technique as cells were stained with 5% MTT solution and allowed to break down the dye into colored-insoluble formazan crystals for 4 h. The formazan crystals were dissolved in acidified isopropanol for 30 min with continuous shaking at room temperature. The colorimetric assay was measured and recorded at absorbance of 570 nm. The cell viability was expressed as percentage of control and the concentration that […]
(§9) 100% viability and group treated with a mixture of toxic compounds as 0% viability.
(IC50) were determined for each compound using Graph Pad Prism version 5 software by plotting of log C against % viability. […]
A general note: Tetrazolium assays rely on reduction of a dye to a coloured formazan, in cell work by metabolically active cells.

In assay [3] the test system is HCT-116. In words: MTT anti-proliferative assay, HCT-116. The assay is classed as cell-based. Conditions: Homo sapiens, HCT-116 colorectal cancer cells, read-out: Cytotoxicity IC50 HCT-116. The procedure: [Worded in the source for another cell line; this cell line is reported under the same test.] as §4, §1, §5, §6, §7, §8, §9
(IC50) were determined for each compound using Graph Pad Prism version 5 software by plotting of log C against % viability.
as §2, §3
nominated as a standard VEGFR-2 inhibitor. Both standard and samples were added to the wells and incubated overnight at 4 ◦C, then washed. The biotinylated antibody was supplemented and further incubated for 1 h at room temperature. The unreacted, […]

The test system of assay [4] is IL-6. In words: qRT-PCR level of IL-6 in HCT-116 cells. The note with it: 24 h, compound 7 at 15.70 µM, compound 10 at […]. The assay is classed as cell-based, human. The procedure: (§10) Dexamethasone as a universal immunomodulatory drug was used as a reference molecule.
(§11) The effect of compounds 7 and 10 on the expression of TNF-α and IL-6 were determined using qRT-PCR as described in Supplementary data[48–50].
(§12) 4.2.5. Quantitative Real Time Reverse-Transcriptase PCR technique
(§13) The quantity of immunomodulatory proteins (TNF-α and IL-6) in control and compounds 7, 10 (at the IC50 concentration)-treated HepG2 cells was as sessed by qRT-PCR (reference). Total RNA from vehicle -treated control (0.01% DMSO) and […] HepG2 cells were extracted as -per the manufacturer instructi ons (RNeasy mini kit, Qiagen, Germany). After RNA extraction, cDNA was prepared using the Revert Aid First Strand cDNA Synthesis kit (Thermo Scientific, USA). Amplification of target cDNA for apoptosis markers and GAPDH [as a normalization (housekeeping) gene] was done using one-step RT-PCR SYBR® Green kit Master Mix (Bio‐Rad
(§14) Laboratories, USA) on Rotor -Gene Q real-time PCR thermal cycler instrument. cDNA (2 μl aliquots) was mixed with 1 μl of forward primer, 1 μl re verse primer, 10 μl master mixture, and the reaction volume was completed to 20 μl with nuclease -free water. All experiments were performed in tri plicates
(§15) 4- 4.3. Experimental of in silico studies

The test system of assay [5] is TNF-α. In words: qRT-PCR level of TNF-α in HCT-116 cells. It is filed as cell-based, human. Conditions: 24 h, compound 7 at 15.70 µM, compound 10 at […]. The procedure:
as §10, §11, §12, §13, §14, §15

Assay [6] relates to HCT-116 cells. In words: Cell cycle analysis by PI staining and flow cytometry. The note with it: 48 h. It is filed as cell-based, human. The procedure:
Numerous anti-proliferative agents produce their effect by either arresting the cell growth at a particular point of the cell cycle or the induction of apoptosis, or by a combined effect. Taking compound 7 as a representative example of the tested compounds, its effect on the cell-cycle arrest of the HCT-116 cells for 48 h was evaluated by flow cytometry assay using the untreated HCT-116 as a control.
Cell cycle analysis was performed using propidium iodide (PI) staining and flow cytometry analysis for compound 7 as described in Supplementary data[44]^,[45]. […]
5% CO2. Cells were washed twice with phosphate buffer saline, then the centrifugation of cell pellets had been completed, followed by preservation with ice-cold 70% ethanol for 15 min. Pellets were collected again and incubated with propidium iodide (PI) staining solution. After incubation for one hour at room temperature, it was analyzed by flowcytometry on an FC500 cytometer (Beckman Coulter) and the cell cycle distributions were calculated. […]
On the technique in general: Flow cytometry measures light scatter and fluorescence of single cells or particles in a stream.

The test system of assay [7] is HCT-116 cells. Nature of the assay: Apoptosis assay, FITC-Annexin V/PI flow cytometry. It is filed as cell-based, human. Conditions: 15.70 μM, 48 h. The procedure:
To determine whether apoptosis induction is involved in the anti-proliferative effects of the synthesised compounds, the apoptosis assay was performed for compound 7 against HCT-116 cells. The cells were incubated with either vehicle or compound 7 at a concentration of 15.70 μM for 48 h and then stained with FITC-Annexin V and propidium iodide (PI). The percentages of apoptotic HCT-116 cells were determined by flow cytometry analysis.
Flow cytometry cell apoptosis analysis was used to investigate the apoptotic effect of compound 7 as described in Supplementary data[46]^,[47]. […]
4.2.4. Flow cytometry analysis for apoptosis
Flow cytometry cell apoptosis analysis was used to investigate the apoptotic […]
AnnexinV-fluorescein isothiocyanate (Annexin V-FITC) is a protein that has high affinity to phosphatidyl serine PS, which can be detected by staining with Annexin V-(FITC) and counter staining with propidium iodide (PI). In such procedure, HepG2 cells were incubated together with the tested compound […] for 24 h. Then, the cells were centrifuged, collected by trypsin, washed with PBS two successive times, and suspended in […] of binding buffer. The double staining Annexin V-FITC […] were added to the cells and incubated in the dark for 5 min at room temperature. The stained cells were analyzed for flow cytometry using FACS caliber flow cytometer and apoptosis detection kit (BD Biosciences, San Jose, CA)

In general, IC50 refers to the concentration that inhibits the measured activity by half.

T1 sequence (P35968 20-1356): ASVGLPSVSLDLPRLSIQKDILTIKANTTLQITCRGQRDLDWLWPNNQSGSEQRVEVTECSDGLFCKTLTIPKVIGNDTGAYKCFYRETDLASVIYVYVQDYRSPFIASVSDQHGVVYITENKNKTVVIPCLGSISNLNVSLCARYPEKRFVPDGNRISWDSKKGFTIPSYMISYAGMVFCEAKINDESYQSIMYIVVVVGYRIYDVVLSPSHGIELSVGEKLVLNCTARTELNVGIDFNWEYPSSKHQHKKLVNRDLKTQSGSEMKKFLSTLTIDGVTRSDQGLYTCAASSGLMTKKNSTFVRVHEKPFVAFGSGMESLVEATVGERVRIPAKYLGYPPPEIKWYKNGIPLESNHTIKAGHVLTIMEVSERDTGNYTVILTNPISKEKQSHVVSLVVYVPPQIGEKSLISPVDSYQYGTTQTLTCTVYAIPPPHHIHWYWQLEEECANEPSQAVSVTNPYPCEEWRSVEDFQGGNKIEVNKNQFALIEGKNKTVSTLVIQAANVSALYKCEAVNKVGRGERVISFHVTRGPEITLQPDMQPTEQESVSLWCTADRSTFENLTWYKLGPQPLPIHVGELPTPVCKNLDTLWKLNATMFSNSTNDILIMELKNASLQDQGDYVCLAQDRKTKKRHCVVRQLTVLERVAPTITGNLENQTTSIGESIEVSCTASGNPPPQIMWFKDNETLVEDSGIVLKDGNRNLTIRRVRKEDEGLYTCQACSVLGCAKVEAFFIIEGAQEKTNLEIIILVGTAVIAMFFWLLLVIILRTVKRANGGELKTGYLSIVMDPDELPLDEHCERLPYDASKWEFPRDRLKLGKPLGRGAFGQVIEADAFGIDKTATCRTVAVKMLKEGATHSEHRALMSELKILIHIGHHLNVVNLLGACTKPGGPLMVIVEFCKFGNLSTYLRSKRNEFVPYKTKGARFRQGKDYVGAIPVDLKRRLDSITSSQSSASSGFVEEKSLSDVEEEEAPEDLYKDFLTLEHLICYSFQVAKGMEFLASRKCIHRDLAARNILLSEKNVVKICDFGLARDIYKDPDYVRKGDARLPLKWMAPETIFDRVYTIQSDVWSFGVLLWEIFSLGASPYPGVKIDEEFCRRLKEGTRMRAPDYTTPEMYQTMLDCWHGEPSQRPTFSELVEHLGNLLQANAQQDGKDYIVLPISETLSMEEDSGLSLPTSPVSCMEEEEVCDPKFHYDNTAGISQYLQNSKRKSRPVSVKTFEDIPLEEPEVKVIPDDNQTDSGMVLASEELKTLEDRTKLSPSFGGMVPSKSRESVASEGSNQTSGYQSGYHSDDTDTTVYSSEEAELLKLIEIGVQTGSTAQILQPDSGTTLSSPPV

With `O=C(N/N=C/c1cccc([N+](=O)[O-])c1)c1ccc(NC(=O)c2cccnc2)cc1` [Compound 6, (E)-N-(4–(2-(3-Nitrobenzylidene)hydrazine-1-carbonyl)phenyl)nicotinamide], the half-maximal inhibitory concentration (IC50) amounted to 0.292 µM in assay [1], 19.5 ± 0.063 µM in assay [2] and 22.09 ± 0.064 µM in assay [3].
Regarding `C[C@@H]1C[C@H]2[C@@H]3CCC4=CC(=O)C=C[C@]4(C)[C@@]3(F)[C@@H](O)C[C@]2(C)[C@@]1(O)C(=O)CO` [Dexamethasone, reference compound], the “IL-6 (% inhibition)” value is 93.15% in assay [4] and 93.1% in assay [4] (listed as dexamethasone). Further, the “TNF-α (% inhibition)” value is on record as 82.47% in assay [5] and 82.4% in assay [5] (listed as dexamethasone).
`CNC(=O)c1cc(Oc2ccc(NC(=O)Nc3ccc(Cl)c(C(F)(F)F)c3)cc2)ccn1` [Sorafenib, reference compound]: the figures for the IC50 in assay [2] and in assay [3] were 7.4 ± 0.253 µM and 9.3 ± 0.201 µM, respectively.
As to `COc1cc(/C=N/NC(=O)c2ccc(NC(=O)c3cccnc3)cc2)cc(OC)c1OC` [Compound 7, (E)-N-(4–(2-(3,4,5-Trimethoxybenzylidene)hydrazine-1-carbonyl)phenyl) nicotinamide], in assay [6], the “Cell cycle distribution (%) % S” value turned out to be 26.92%, the “Cell cycle distribution (%) %G0-G1” value worked out at 41.92%, the “Cell cycle distribution (%) %G2-M” value worked out at 31.16% and the “Cell cycle distribution (%) %Pre-G1” value amounted to 15.74%. Also, in assay [1], the IC50 turned out to be 0.25 µM. For the same compound, the IC50 in assay [2] was found to be 15.5 ± 0.055 µM. For the same compound, in assay [7], the “Apoptosis Early” value was 2.75%, the “Apoptosis Late” value is listed as 11.26%, the “Apoptosis Total” value is recorded as 15.74% and the “Increase in early-phase apoptotic cells versus control” value is 4 fold. Further, in assay [7], the “Increase in late-phase apoptotic cells versus control” value is given as 6.5 folds, the Necrosis amounted to 1.73% and the “Total apoptosis induction versus control” value stood at 5 folds. In addition, the IC50 in assay [3] was 15.7 ± 0.058 µM.
With `C/C(=N\NC(=O)c1ccccc1Cl)c1ccc(NC(=O)c2cccnc2)cc1` [Compound 10], in assay [1], the IC50 was found to be 0.145 µM.
In the case of `CC(=O)Nc1ccc(C(=O)N/N=C(\C)c2ccc(NC(=O)c3cccnc3)cc2)cc1` [Compound 11, (E)-N-(4–(1-(2–(4-Acetamidobenzoyl)hydrazono)ethyl)phenyl)nicotinamide], the IC50 in assay [1] was 0.0866 µM; in assay [2], 21.6 ± 0.07 µM; in assay [3] it was 20.17 ± 0.063 µM.

The values above are taken from paper PMC9466619, “Anti-cancer and immunomodulatory evaluation of new nicotinamide derivatives as potential VEGFR-2 inhibitors and apoptosis inducers: in vitro and in silico studies” (Journal of Enzyme Inhibition and Medicinal Chemistry, 2022).
